What was measured:
PC-3 = test: Single cell ROS measurement with Pt-nanoelectrodes, PC-3; assay type: cell-based, human; conditions: PC-3, 1 h incubation, IC50 concentration
Protocol: (§1) Commercially available, disk-shaped carbon nanoelectrodes isolated in quartz (ICAPPIC Limited, London, UK) with diameters of 60–100 nm were used to prepare Pt nanoelectrodes for the amperometric detection of intracellular ROS level. Preparation of Pt-nanoelectrodes has been described in detail previously.
(§2) Briefly, a disk-shaped carbon nanoelectrode was etched in a 0.1 M NaOH, 10 mM KCl solution for 20–40 cycles of 10 seconds (from 0 to +2200 mV) to create nanocavities. Electrochemical deposition of platinum in nanocavities was achieved by cycling from 0 to −800 mV with a scan rate of 200 mV s^−1 for 8 to 10 cycles in 2 mM H2PtCl6 solution in 0.1 M hydrochloric acid. […]
(§3) The setup for amperometric measurements included a PC that was connected to a system consisting of an ADC–DAC converter Axon Digidata 1550B (Axon Instruments, Burlingame, CA, USA) and patch-clamp amplifier MultiClamp 700B (Axon Instruments, USA). […] The potential difference between the Pt-nanoelectrode and the reference electrode was recorded with the pClamp 11 software suite (Molecular Devices, Silicon Valley, CA, USA) and processed with Origin 2018 software.
(§4) PC-3 (2.0 × 10^5)/22Rv1 (3.5 × 10^5) cells were seeded in 35 mm Petri dishes, incubated under the conditions described above, and then treated for 24 h. […] Untreated cells were used as a control, which was evaluated at the beginning and at the end of the experiment. […]

[1] = system: 22Rv1 prostate cancer subcutaneous xenograft; test: 22Rv1 human tumor xenograft mouse model; assay type: in vivo, Balb/c nude mice; conditions: 22Rv1 xenografts
Protocol: Male, 6–8 week old Balb/c nude mice with body weight range of 20–22 g were purchased from N.N.Blokhin Cancer Research Center. Animals were kept in plastic cages equipped with lids with feeding recesses, air filters, and feed dividers at 2–3 mice per cage.
Mice were injected subcutaneously in the right and left flanks with 1 × 10^7 22Rv1 cells in RPMI-1640 medium 0.2 mL supplemented with 0.2 mL Corning Matrigel® matrix (Corning, NY, USA) in a total volume of 400 μL. When the average size of the tumors reached ~100 mm^3, mice were randomly divided into three groups, with five mice per group, including a vehicle group (1% starch paste) and two treatment groups: PSMA-Abi 500 mg/kg/day and AbiAc 200 mg/kg/day for 14 days. The drugs were administered orally, and all compounds were formulated with 1% starch paste. Following the treatment, the primary tumor size was measured twice weekly with a micro-caliper, and the tumor volume was calculated using the formula: Volume = π/6 × length × width × height. Treatment outcome was based on percentage of tumor growth inhibition (%TGI), defined as the percent difference between the median tumor volumes (MTVs) of mice in the treated and control groups. Percent TGI was calculated using the following formula: %TGI = [1 − (MTV treatment group/MTV control)] 100%. All data are presented as means ± SD. Statistical analyses of in vivo research were performed using SPSS Statistics V. 22.0, comparing continuous variables by non-parametrical Mann–Whitney U. * p ≤ 0.05 was considered as significant in comparison with the control.

cytochrome P450 1A2 = target: T1, cytochrome P450 1A2 (Homo sapiens, UniProt P05177); test: Cytochrome inhibition in human liver microsomes, 1A2; assay type: in vitro ADME; conditions: substrate Phenacetin, read-out: IC50, 1A2 (PSMA-Abi)
T1 construct: isoenzyme activity in human liver microsomes using conventional sample substrates and HPLC-MS/MS detection; from tissue; host or cells: human liver microsomes
T1 sequence (P05177 1-516): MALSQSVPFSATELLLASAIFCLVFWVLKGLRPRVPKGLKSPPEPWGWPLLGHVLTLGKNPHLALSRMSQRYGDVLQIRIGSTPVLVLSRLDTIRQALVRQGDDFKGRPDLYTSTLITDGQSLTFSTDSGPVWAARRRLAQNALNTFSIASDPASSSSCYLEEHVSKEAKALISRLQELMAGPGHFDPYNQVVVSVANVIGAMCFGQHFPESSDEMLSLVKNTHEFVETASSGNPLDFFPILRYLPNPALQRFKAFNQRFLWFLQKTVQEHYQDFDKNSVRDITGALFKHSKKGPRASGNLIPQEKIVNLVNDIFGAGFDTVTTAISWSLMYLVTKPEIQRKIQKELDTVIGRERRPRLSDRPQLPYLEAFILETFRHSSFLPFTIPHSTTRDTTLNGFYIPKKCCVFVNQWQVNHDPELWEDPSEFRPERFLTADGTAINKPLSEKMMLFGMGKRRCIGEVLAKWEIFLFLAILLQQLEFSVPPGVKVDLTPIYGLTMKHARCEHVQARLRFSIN
Description: (§5) To assess the effect of drugs on liver cytochrome activity in drug development, test systems with recombinant enzymes and fluorescent substrates as well as microsomes with metabolic substrates and HPLC-MS/MS analysis were used. The present study aimed to investigate the effect of targeted delivery drugs specific to malignant prostate cells on cytochrome P450 (CYP450) isoenzyme activity in human liver microsomes using conventional sample substrates and HPLC-MS/MS detection. Detailed methodological parameters are described in the Supplementary Material.

[2] = Water solubility (comparison in words); assay type: physicochemical; conditions: compared to AbiAc
22Rv1 = test: Single cell ROS measurement with Pt-nanoelectrodes, 22Rv1; assay type: cell-based, human; conditions: 22Rv1, 1 h incubation, IC50 concentration
Protocol: as §1, §2, §3, §4

cytochrome P450 2C9 = target: T2, cytochrome P450 2C9 (Homo sapiens, UniProt P11712); test: Cytochrome inhibition in human liver microsomes, 2C9; assay type: in vitro ADME; conditions: substrate Tolbutamide, read-out: IC50, 2C9 (PSMA-Abi)
T2 construct: isoenzyme activity in human liver microsomes using conventional sample substrates and HPLC-MS/MS detection; from tissue; host or cells: human liver microsomes
T2 sequence (P11712 whole entry): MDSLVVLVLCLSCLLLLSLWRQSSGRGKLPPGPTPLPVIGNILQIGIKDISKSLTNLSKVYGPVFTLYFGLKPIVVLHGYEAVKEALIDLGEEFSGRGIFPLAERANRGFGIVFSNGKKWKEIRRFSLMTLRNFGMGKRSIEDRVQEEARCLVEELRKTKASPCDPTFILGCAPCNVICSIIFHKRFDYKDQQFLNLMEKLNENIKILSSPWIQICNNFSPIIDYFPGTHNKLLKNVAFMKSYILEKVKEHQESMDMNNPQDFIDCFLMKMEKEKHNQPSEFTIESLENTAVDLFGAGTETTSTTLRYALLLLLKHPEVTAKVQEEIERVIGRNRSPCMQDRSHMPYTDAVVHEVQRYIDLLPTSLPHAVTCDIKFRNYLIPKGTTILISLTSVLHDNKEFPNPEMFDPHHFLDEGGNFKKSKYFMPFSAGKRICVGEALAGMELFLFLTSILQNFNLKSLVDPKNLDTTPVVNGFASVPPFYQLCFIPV
Description: as §5

[3] = oral x14, PSMA-Abi 500, AbiAc 200 mg/kg/day

Compound: C[C@]12CC[C@H](OC(=O)CCCc3cn(CCCNC(=O)[C@H](Cc4ccc(O)cc4)NC(=O)[C@H](Cc4ccccc4)NC(=O)CCC(=O)NCCCCCC(=O)N(CCCC[C@H](NC(=O)N[C@@H](CCC(=O)O)C(=O)O)C(=O)O)Cc4cccc(Cl)c4)nn3)CC1=CC[C@@H]1[C@@H]2CC[C@]2(C)C(c3cccnc3)=CC[C@@H]12 [PSMA-Abi]
- ROS (hydrogen peroxide) level in single cells (PC-3): remained at the level of the AbiAc sample
- TGImax (tumor growth inhibition) ([1]; oral x14, PSMA-Abi 500 mg/kg/day, AbiAc 200 mg/kg/day, after the end of treatment): 65%
- TGI, day 15 after start of the treatment [1, 3]: 65%
- TGI, day 18 after start of the treatment [1, 3]: 63%
- TGI, day 22 after start of the treatment [1, 3]: 60%
- Tumor volume (M+SE), day 15 [1, 3]: 876±197 mm3
- Tumor volume (M+SE), day 18 [1, 3]: 1063±195 mm3
- Tumor volume (M+SE), day 22 [1, 3]: 1294±201 mm3
- Tumor volume (M+SE), day 0 ([1]; start of treatment): 110±18 mm3
- IC50 (cytochrome P450 1A2): 4.5 ± 1.1 µM
- water solubility [2]: better water solubility compared to the AbiAc
- ROS (hydrogen peroxide) level in single cells (22Rv1): significant increase in comparison with both the control and AbiAc groups
- IC50 (cytochrome P450 2C9): > 25 µM

— article PMC9783881, “Synthesis and Preclinical Evaluation of Small-Molecule Prostate-Specific Membrane Antigen-Targeted Abiraterone Conjugate” (Molecules, 2022)
